Results from patent publication US6632820B1, “Pyrimidine compounds” (AstraZeneca AB, priority 1998, dated 2003).

Biological target: T1, CDK4/Cyclin D1 (Homo sapiens, UniProt P11802)
T1 construct: made in house; host or cells: SF21 insect cells (Spodoptera frugiperda), baculovirus co-infection, vector pVL1393
Test: CDK Inhibition Assay (Scintillation Proximity Assay, GST-Retinoblastoma substrate)
Format: biochemical
Settings: in-vitro kinase assay, incorporation of [γ-33-P]-ATP into GST-Rb, 60 minutes at room temperature; read-out: CDK4 inhibitory activity IC50
Description: The compounds were tested in an in vitro kinase assay in 96 well format using Scintillation Proximity Assay (SPA—obtained from Amersham) for measuring incorporation of [γ-33-P]-Adenosine Triphosphate into a test substrate (GST-Retinoblastoma). In each well was placed the compound to be tested (diluted in DMSO and water to correct, concentrations) and in control wells either p 16 as an inhibitor control or DMSO as a positive control. Approximately 0.5 μl of CDK4/Cyclin D1 partially-purified enzyme (amount dependent on enzyme activity) diluted in 25 μl incubation buffer was added to each well then 20 μl of GST-Rb/ATP/ATP33 mixture (containing 0.54 μg GST-Rb and 0.2 μM ATP and 0.14 μCi [γ-33-P]-Adenosine Triphosphate), and the resulting mixture shaken gently, then incubated at room temperature for 60 minutes. To each well was then added 150 μL stop solution containing (0.8 mg/well of Protein A-PVT SPA bead (Amersham)), 20 pM/well of Anti-Glutathione Transferase, Rabbit IgG (obtained from Molecular Probes), 61 mM EDTA and 50 mM HEPES pH 7.5 containing 0.05% sodium azide. The plates were sealed with Topseal-S plate sealers, left for two hours then spun at 2500 rpm, 1124×g., for 5 minutes. The plates were read on a Topcount for 30 seconds per well. […]

T1 sequence (P11802 whole entry): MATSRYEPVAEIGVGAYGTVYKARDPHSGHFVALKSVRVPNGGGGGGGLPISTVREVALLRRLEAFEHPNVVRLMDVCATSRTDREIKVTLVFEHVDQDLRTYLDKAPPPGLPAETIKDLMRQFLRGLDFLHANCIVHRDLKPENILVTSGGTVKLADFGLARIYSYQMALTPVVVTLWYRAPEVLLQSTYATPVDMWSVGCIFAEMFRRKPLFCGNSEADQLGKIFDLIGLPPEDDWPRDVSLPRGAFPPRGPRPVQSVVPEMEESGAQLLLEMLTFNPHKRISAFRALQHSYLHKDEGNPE
T1 sequence (P24385 whole entry partner): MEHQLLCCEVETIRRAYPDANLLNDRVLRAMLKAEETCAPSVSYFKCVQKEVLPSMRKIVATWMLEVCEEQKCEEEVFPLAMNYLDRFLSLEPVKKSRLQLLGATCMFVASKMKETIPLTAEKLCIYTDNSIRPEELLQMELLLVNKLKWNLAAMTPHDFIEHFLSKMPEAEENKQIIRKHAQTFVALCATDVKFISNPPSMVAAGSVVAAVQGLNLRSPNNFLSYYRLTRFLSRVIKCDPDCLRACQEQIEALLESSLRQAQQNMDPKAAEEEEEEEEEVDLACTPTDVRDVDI

IC50 [µM] | SMILES
0.07 | Cc1ccc(Cl)c(N(CC#N)c2cc(Nc3ccc(OCC(O)CN(C)C)cc3)ncn2)c1 (centres unmarked) [Example 2, 4-{4-[3-(N,N-Dimethyl)amino-2-hydroxylropoxy]anilino}-6-(N-cyanomethyl-2-chloro-5-methylanilino)pyrimidine]
0.11 | Cc1ccc(N(CC#N)c2cc(Nc3ccc(OCC(O)CN(C)C)cc3)ncn2)c(Br)c1 (centres unmarked) [Example 1, 4-{4-[3-(N,N-Dimethyl)amino-2-hydroxyproroxy]anilino}-6-(N-cyanomethyl-2-bromo-4-methylanilino)pyrimidine]
